Reference: patent US20240366701A1, “EXTRACT OF MYROTHAMNUS SP FOR PROMOTING HAIR GROWTH” (Lubrizol Advanced Materials, Inc., priority 2021, published 2024)

Tests used:
[1] = test system: Human Epidermal Keratinocyte cells (HEK); assay: In vitro proliferation assay on keratinocyte cells (PrestoBlue); type: cell-based; details: test concentration 10 (%, v/v), 24 h, negative control = 100.00
Method: Human Epidermal Keratinocyte cells (HEK) are grown to a density of 4500 cells/cm^2 in keratinocyte growth medium at 37° C. in 5% CO2 humidified air during 7 days. After this time, they are split and then seeded for treatment.
HEK are seeded at a density of 70000 cells/mL of culture medium in 96-well Cell Carrier black plates (PerkinElmer) in culture medium. After 24 hours incubation at 37° C. in 5% CO2 humidified air, medium is removed and fresh culture medium with dilutions of the test products. Cells treated with medium alone are used as negative control. Epidermal Growth Factor (EGF) is used as a positive control. After 24 hours incubation, live and dead cells are quantified with PrestoBlue® Cell Viability Reagent.
HEK quantification is quantified by fluorescence by using cell permeable resazurin-based solution PrestoBlue® from Thermo Fisher Scientific.
Stock solution of Example 1 and 2 are assayed in 3 independent experiments including 4 replicates in each experiment.

[2] = test system: Human Umbilical Vein Endothelial cells (HUVEC); assay: In vitro new blood vessel (tube-like structure) formation; type: cell-based; details: 5 ng/ml, 4 h, respect basal condition
Text: Hair follicles get nourishment from blood flow in the skin having hair. Optimal irrigation of hair follicle increases its nourishment and stimulates the generation of new hair and improves hair growth and strength. Compounds able to generate new blood vessels in the hair follicle are good candidates for the cosmetic treatment of eyelash growth and strength. In vitro assessment of new blood vessels formation involves measurement of the ability of endothelial cells to form three-dimensional tube-like structures. Human Umbilical Vein Endothelial cells (HUVEC) mediate specific connections with extracellular matrix components generating differential forces which induces morphological changes and migration of HUVEC, leading to the formation of tube-like structures. The aim of this study is to evaluate the efficacy of the compound of the invention to generate new blood vessel tubes by means of measuring the ability of endothelial cells to form three-dimensional tube-like structures.
A 96 well plate is pre-coated with cold Extracellular Matrix Solution (Angiogenesis Assay kit, PromoKine) and incubated for 1 hour at 37° C. After the incubation, HUVEC cells are seeded in pre-coated wells at a density of 15,000 cells/well. Immediately, cells are treated with the stock solution of Example 2 dissolved in medium achieving a final well concentration of 0.5% (v/v). Vascular endothelial growth factor (VEGF) is used as positive control at a final well concentration of 5 ng/ml and cells treated with medium alone are used as a basal control. Cells are treated for 4 hours at 37° C. in 5% CO2 humidified air and then are stained with Staining Dye (Angiogenesis Assay kit, PromoKine) according to the manufacturer's protocol. Briefly, cells are washed and then Staining Dye solution was added. After a 30 minutes incubation at 37° C. in 5% CO2 humidified air, fluorescence images are captured using Operetta® confocal microscope (PerkinElmer, Inc) and new tubes formation is evaluated by ImageJ software.
New blood vessel tube formation is evaluated by the measurement of different parameters in each image acquired. […] Afterwards, the software quantifies more complex structures: • Segment length: number of pixels of each segment detected. • Master segment number: number of segments delimited by junctions without branch connection. • Master junction number: number of junctions which link at least three master segments. • Number of meshes: number of elements delimited by segments or master segments.
To consider an increase in new blood vessel tube formation, more than one of the parameters measured needs to be increased.
Results herein are the different measured parameters expressed as percentage normalized by basal condition.

Row | Substance | Cell growth MEAN normalized with respect to the negative control [1] | % of number of master junctions (Mean ± SEM) [2] [%] | % of number of master segments (Mean ± SEM) [2] [%] | % of number of meshes (Mean ± SEM) [2] [%] | % of total segment length (Mean ± SEM) [2] [%]
1 | Positive control (EGF): Epidermal Growth Factor used as a positive control | 94.41 | – | – | – | –
2 | VEGF | – | 183.1 ± 31.1 | 196.5 ± 36.5 | 288.6 ± 75.9 | 160.1 ± 21.9
